Values quoted from earlier work, collected in publication PMC5810560 (Chemico-biological interactions, 2017).

Conditions: rats, brain homogenates, 50 μmol IM exposure; ref Petroianu et al., 2007; cited from earlier work

C[n+]1ccccc1/C=N/O [2-PAM, pralidoxime chloride]
brain/plasma ratio: 0.056
